Measured values published in patent publication US9249125B2, “Pyrazole derivatives as p38 MAP inhibitors” (RESPIVERT LIMITED, priority 2012, dated 2016).

What was measured:
HRV16 = HRV16 induced CPE in MRC5 cells; type: cell-based, human rhinovirus; conditions: for IC50: Human rhinovirus sp., HRV16, MRC5, read-out: HRV induced CPE in MRC5 Cells IC50; for HRV induced CPE in MRC5 Cells % Inhibition Observed: screened at concentrations up to 0.32 ng/mL
Protocol: The supernatants are aspirated, and then fresh media added followed by incubation for 4 days. Where appropriate, cells are pre-incubated with compound or DMSO for 2 hr, and the compounds and DMSO added again after washout of the virus.
Supernatants are aspirated and incubated with methylene blue solution (100 μL, 2% formaldehyde, 10% methanol and 0.175% Methylene Blue) for 2 hr at RT. […] The percentage inhibition for each well is calculated. The IC50 value is calculated from the concentration-response curve generated by the serial dilutions of the test compounds.

cSrc = cSrc (Homo sapiens (Human), UniProt P12931); test: Enzyme binding assay (Kinomescan) cSrc; conditions: read-out: % Inhibition for kinase binding at 500 nM cSrc
Protocol: (§1) These assays were conducted by DiscoverX (formerly Ambit; San Diego, Calif.). The percentage inhibition produced by incubation with a test compound is calculated relative to the non-inhibited control.

B-Raf = B-Raf (Homo sapiens (Human), UniProt P15056); test: Enzyme binding assay (Kinomescan) B-Raf; conditions: read-out: % Inhibition for kinase binding at 500 nM B-Raf
Protocol: as §1

Syk = Syk (Homo sapiens (Human), UniProt P43405); test: Enzyme binding assay (Kinomescan) Syk; conditions: read-out: % Inhibition for kinase binding at 500 nM Syk
Protocol: (§2) The kinase enzyme binding activities of compounds disclosed herein were determined using a proprietary assay which measures active site-directed competition binding to an immobilized ligand (Fabian, M. A. et al., Nature Biotechnol., 2005, 23:329-336). These assays were conducted by DiscoverX (formerly Ambit; San Diego, Calif.). The percentage inhibition produced by incubation with a test compound is calculated relative to the non-inhibited control.

GSK3α = GSK3α (Homo sapiens (Human), UniProt P49840); test: Enzyme binding assay (Kinomescan) GSK3α; conditions: read-out: % Inhibition for kinase binding at 500 nM GSK3α
Protocol: as §2

HCK = HCK (Homo sapiens (Human), UniProt P08631); test: Enzyme binding assay (Kinomescan) HCK; conditions: read-out: % Inhibition for kinase binding at 500 nM HCK
Protocol: as §2

p38 MAPKα = p38 MAPKα (Homo sapiens (Human), UniProt Q16539); test: Enzyme binding assay (Kinomescan) p38 MAPKα; conditions: read-out: % Inhibition for kinase binding at 500 nM p38 MAPKα
Protocol: as §2

p38 MAPKγ = p38 MAPKγ (Homo sapiens (Human), UniProt P53778); test: Enzyme binding assay (Kinomescan) p38 MAPKγ; conditions: read-out: % Inhibition for kinase binding at 500 nM p38 MAPKγ
Protocol: as §1

Chain of GSK3α (P49840 whole entry): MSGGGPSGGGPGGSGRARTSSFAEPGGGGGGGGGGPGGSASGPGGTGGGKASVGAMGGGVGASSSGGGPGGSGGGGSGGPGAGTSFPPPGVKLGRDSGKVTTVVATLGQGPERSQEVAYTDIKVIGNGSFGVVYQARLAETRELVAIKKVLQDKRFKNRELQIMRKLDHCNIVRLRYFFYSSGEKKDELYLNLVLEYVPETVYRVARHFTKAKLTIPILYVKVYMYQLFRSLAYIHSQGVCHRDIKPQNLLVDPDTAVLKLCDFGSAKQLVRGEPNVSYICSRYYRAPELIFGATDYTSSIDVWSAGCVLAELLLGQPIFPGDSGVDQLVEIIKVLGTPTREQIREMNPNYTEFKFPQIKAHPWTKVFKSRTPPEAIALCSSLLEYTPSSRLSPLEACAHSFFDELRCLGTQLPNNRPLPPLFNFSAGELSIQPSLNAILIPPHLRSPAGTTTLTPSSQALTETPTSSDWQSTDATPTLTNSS
Chain of cSrc (P12931 whole entry, looked up): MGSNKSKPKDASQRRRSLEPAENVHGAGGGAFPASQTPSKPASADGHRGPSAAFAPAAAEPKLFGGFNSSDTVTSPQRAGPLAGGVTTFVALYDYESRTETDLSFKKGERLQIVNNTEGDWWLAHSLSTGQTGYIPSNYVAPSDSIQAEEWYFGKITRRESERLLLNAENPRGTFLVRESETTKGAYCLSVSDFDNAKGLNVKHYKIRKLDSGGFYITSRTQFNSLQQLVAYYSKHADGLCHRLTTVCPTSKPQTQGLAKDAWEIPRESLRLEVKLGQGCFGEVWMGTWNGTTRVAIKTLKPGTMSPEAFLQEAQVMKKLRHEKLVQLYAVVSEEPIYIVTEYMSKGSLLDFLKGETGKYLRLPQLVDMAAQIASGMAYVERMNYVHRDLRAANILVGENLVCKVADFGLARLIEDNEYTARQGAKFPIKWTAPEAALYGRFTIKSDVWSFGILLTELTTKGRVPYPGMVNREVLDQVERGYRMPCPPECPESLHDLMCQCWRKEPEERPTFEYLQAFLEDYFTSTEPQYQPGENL
Chain of B-Raf (P15056 whole entry): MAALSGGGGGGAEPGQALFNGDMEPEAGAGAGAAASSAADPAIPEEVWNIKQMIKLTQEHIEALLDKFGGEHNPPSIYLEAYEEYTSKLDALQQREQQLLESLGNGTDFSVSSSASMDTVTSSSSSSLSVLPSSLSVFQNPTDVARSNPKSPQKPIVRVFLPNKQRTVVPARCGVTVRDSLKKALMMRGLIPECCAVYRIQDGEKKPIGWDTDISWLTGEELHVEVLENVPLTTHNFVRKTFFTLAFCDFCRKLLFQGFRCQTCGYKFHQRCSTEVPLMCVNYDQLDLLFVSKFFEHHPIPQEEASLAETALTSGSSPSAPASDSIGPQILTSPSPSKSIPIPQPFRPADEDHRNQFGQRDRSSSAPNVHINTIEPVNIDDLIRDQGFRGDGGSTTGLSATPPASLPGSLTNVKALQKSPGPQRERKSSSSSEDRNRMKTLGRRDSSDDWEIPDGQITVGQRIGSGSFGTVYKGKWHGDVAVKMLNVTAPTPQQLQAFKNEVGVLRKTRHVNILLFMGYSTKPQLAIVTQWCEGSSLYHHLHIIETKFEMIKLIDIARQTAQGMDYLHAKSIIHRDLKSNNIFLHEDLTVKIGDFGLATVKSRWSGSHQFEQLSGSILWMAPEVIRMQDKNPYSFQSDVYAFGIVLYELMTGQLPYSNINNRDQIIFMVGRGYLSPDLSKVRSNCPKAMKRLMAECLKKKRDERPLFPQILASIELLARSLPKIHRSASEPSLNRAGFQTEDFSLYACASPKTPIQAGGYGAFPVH
Chain of HCK (P08631 22-526): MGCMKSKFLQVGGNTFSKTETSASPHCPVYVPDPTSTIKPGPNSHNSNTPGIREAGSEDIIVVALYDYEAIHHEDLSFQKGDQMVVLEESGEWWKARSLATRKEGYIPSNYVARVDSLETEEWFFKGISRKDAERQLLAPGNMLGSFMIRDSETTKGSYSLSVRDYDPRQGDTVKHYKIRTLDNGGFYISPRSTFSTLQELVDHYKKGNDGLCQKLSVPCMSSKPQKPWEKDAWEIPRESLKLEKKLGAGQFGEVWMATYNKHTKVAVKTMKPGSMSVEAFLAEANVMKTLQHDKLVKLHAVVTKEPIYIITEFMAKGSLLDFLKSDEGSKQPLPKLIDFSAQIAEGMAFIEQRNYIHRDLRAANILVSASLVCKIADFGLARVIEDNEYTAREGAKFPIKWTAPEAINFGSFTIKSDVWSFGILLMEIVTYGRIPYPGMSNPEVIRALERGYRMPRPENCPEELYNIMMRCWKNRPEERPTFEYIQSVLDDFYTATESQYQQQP
Chain of p38 MAPKγ (P53778 whole entry): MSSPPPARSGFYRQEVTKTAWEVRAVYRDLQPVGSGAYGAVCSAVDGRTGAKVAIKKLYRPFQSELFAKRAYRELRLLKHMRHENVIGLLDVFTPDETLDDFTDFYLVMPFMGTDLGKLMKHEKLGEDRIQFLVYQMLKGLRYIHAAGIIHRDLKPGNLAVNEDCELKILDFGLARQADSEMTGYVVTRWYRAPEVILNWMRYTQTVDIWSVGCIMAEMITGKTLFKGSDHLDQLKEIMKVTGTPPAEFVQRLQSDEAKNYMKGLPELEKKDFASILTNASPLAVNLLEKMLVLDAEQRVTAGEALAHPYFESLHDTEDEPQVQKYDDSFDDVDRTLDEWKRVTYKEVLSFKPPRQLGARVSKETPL
Chain of p38 MAPKα (Q16539 whole entry): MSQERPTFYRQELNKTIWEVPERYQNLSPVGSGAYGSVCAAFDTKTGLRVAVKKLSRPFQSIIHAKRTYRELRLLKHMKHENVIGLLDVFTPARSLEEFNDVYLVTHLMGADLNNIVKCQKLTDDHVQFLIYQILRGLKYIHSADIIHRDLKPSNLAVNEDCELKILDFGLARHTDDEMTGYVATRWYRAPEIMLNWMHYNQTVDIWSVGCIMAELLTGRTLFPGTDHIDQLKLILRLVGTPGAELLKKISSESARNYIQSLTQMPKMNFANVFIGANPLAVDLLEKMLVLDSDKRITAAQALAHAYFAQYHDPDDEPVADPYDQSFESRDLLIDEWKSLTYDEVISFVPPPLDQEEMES

Compound: Cc1cc(Nc2nccc(Oc3ccc(NC(=O)Nc4cc(C(C)(C)C)nn4-c4ccc(=O)n(CCN5CCOCC5)c4)c4ccccc34)n2)cc2cn[nH]c12 [Example 89, 1-(3-(tert-butyl)-1-(1-(2-morpholinoethyl)-6-oxo-1,6-dihydropyridin-3-yl)-1H-pyrazol-5-yl)-3-(4-((2-((7-methyl-1H-indazol-5-yl)amino)pyrimidin-4-yl)oxy)naphthalen-1-yl)urea]
- IC50 (HRV16): 9.6 nM

Compound: Cc1ccc(-n2nc(C(C)(C)C)cc2NC(=O)Nc2ccc(Oc3ccnc(Nc4ccc5ncsc5c4)n3)c3ccccc23)cc1 [Example 35, 1-(4-((2-(benzo[d]thiazol-6-ylamino)pyrimidin-4-yl)oxy)naphthalen-1-yl)-3-(3-(tert-butyl)-1-(p-tolyl)-1H-pyrazol-5-yl)urea]
- HRV induced CPE in MRC5 Cells % Inhibition Observed (HRV16): 100%

Compound: CC(C)(C)c1cc(NC(=O)Nc2ccc(Oc3ccnc(Nc4ccc5[nH]ncc5c4)n3)c3ccccc23)n(-c2ccc(OCCN3CCOCC3)cc2)n1 [Example 12, 1-(4-((2-((1H-Indazol-5-yl)amino)pyrimidin-4-yl)oxy)naphthalen-1-yl)-3-(3-(tert-butyl)-1-(4-(2-morpholinoethoxy)phenyl)-1H-pyrazol-5-yl)urea]
- inhibition at 0.5 µM (cSrc): 100%
- inhibition at 0.5 µM (B-Raf): 0%
- inhibition at 0.5 µM (Syk): 100%
- inhibition at 0.5 µM (GSK3α): 31%
- inhibition at 0.5 µM (HCK): 100%
- HRV induced CPE in MRC5 Cells % Inhibition Observed (HRV16): 92%
- inhibition at 0.5 µM (p38 MAPKα): 66%
- inhibition at 0.5 µM (p38 MAPKγ): 52%

Compound: Cc1cc(Nc2nccc(Oc3ccc(NC(=O)Nc4cc(C(C)(C)C)nn4-c4cccc(OCCN5CCOCC5)c4)c4ccccc34)n2)cc2cn[nH]c12 [Example 56, 1-(3-(tert-butyl)-1-(3-(2-morpholinoethoxy)phenyl)-1H-pyrazol-5-yl)-3-(4-((2-((7-methyl-1H-indazol-5-yl)amino)pyrimidin-4-yl)oxy)naphthalen-1-yl)urea]
- IC50 (HRV16): 6.7 nM

Compound: Cc1ccc(-n2nc(C(C)(C)C)cc2NC(=O)Nc2ccc(Oc3cc(Nc4ccc5[nH]ncc5c4)ncn3)c3ccccc23)cc1 [Example 23, 1-(4-((6-((1H-indazol-5-yl)amino)pyrimidin-4-yl)oxy)naphthalen-1-yl)-3-(3-(tert-butyl)-1-(p-tolyl)-1H-pyrazol-5-yl)urea]
- IC50 (HRV16): 3 nM
